# From patent publication EP4725946A1, “IRAK4 DEGRADATION AGENT AND USE THEREOF” (Guangzhou Unirise Pharmaceutical Co., Ltd., priority 2023, dated 2024)
# Like-named read-outs stand apart in the source and are kept apart here.
# Biological target: T1, IRAK4 protein (Homo sapiens, UniProt Q9NWZ3)
# T1 sequence (Q9NWZ3 1-460): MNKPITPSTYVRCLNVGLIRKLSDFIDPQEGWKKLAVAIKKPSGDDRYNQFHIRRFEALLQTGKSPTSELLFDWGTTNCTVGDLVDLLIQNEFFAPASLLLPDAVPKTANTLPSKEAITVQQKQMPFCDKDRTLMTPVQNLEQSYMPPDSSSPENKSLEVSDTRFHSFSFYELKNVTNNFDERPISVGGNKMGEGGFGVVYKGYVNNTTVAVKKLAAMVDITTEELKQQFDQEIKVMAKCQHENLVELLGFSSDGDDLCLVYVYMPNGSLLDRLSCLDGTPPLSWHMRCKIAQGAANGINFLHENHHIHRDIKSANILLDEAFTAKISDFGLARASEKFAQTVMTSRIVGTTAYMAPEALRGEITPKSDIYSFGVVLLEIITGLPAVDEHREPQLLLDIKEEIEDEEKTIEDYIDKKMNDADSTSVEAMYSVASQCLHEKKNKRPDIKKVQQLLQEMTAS
# Assay: IRAK4 Degradation Assay in THP-1 Cells (Western Blot)
# Type: cell-based
# Parameters: endogenous in cells; host or cells: THP-1 cells
# Details: 24 hours, 0.0128 to 1000 nM, IRAK4 protein level by Western Blot; for Dmax: read-out: Dmax%
# Protocol: In a 6-well cell culture plate, an appropriate number of THP-1 cells were seeded. The plate was placed in a 5% CO2 incubator at 37°C for overnight culture. Then, the test compound's dimethyl sulfoxide solution was added, with the final concentration ranging from 0.0128 to 1000 nM. After continuous culture for 24 hours, the culture medium was removed, and the cells were collected in a 1.5 mL centrifuge tube. After adding lysis buffer and grinding thoroughly, the mixture was placed on ice for 30 minutes. It was then centrifuged at 15,000 xg and 4°C for 20 minutes. The supernatant was taken, and the level of IRAK4 protein was detected by Western Blot.
SMILES,"DC50 (THP-1 cells, read-out: DC50) [nM]",Dmax (THP-1 cells) [%],"Dmax (THP-1, THP-1 cells) [%]",Dmax% (THP-1 cells) [%],DC50 (THP-1 cells) [nM]
Cn1c(=O)n(C2CCC(=O)NC2=O)c2cccc(C#CCO[C@H]3CC[C@H](C(=O)N4CCC5(CC4)Cc4cc(NC(=O)c6cnn7cccnc67)c(N6CCC(CO)CC6)cc4O5)CC3)c21 (relative stereo) [Compound 74],2.78,–,86.2,–,–
"O=C1CCC(N2Cc3cc(N4CCC(CN5CCC6(CC5)Cc5cc(NC(=O)c7cnn8cccnc78)c(N7CCC(CO)CC7)cc5O6)CC4)ccc3C2=O)C(=O)N1 (single isomer, unassigned) [Example 84]",1.13,–,88.3,–,–
"O=C1CCC(N2Cc3cc(N4CCC(CN5CCC6(CC5)Cc5cc(NC(=O)c7cnn8cccnc78)c(N7CCC(CO)CC7)cc5O6)CC4)ccc3C2=O)C(=O)N1 (single isomer, unassigned) [Example 85]",0.66,–,–,89.8,–
Cn1c(=O)n(C2CCC(=O)NC2=O)c2cccc(CN3CCC(CCN4CCC5(CC4)Cc4cc(NC(=O)c6cnn7cccnc67)c(N6CCC(CO)CC6)cc4O5)CC3)c21 (stereo not drawn) [Compound 1],1.09,–,91.9,–,–
Cn1c(=O)n(C2CCC(=O)NC2=O)c2cccc(C#CCOC3CCN(CCN4CCC5(CC4)Cc4cc(NC(=O)c6cnn7cccnc67)c(N6CCC(CO)CC6)cc4O5)CC3)c21 (stereo not drawn) [Compound 19],2.18,–,87.9,–,–
Cn1c(=O)n(C2CCC(=O)NC2=O)c2cccc(CN3CCC4(CC3)CN(CCN3CCC5(CC3)Cc3cc(NC(=O)c6cnn7cccnc67)c(N6CCC(CO)CC6)cc3O5)C4)c21 (stereo not drawn) [Compound 32],–,95.4,–,–,1.53
Cn1c(=O)n(C2CCC(=O)NC2=O)c2cccc(CN3CC4(CCN(CCN5CCC6(CC5)Cc5cc(NC(=O)c7cnn8cccnc78)c(N7CCC(CO)CC7)cc5O6)CC4)C3)c21 (stereo not drawn) [Compound 33],–,94.8,–,–,1.66
Cn1c(=O)n(C2CCC(=O)NC2=O)c2cccc(C#CCO[C@H]3CC[C@H](CN4CCC5(CC4)Cc4cc(NC(=O)c6coc7cccnc67)c(N6CCC(CO)CC6)cc4C5)CC3)c21 (stereo partly drawn) [Compound 52],5.25,89.2,–,–,–
Cn1c(=O)n(C2CCC(=O)NC2=O)c2cccc(C#CCOCCNCCN3CCC4(CC3)Cc3cc(NC(=O)c5cnn6cccnc56)c(N5CCC(CO)CC5)cc3O4)c21 (stereo not drawn) [Compound 59],1.17,–,88.6,–,–
Cn1nc(N2CCC(=O)NC2=O)c2cccc(CN3CCC(CCN4CCC5(CC4)Cc4cc(NC(=O)c6coc7cccnc67)c(N6CCC(CO)CC6)cc4O5)CC3)c21 [Compound 62],7.34,–,82.8,–,–
O=C1CCC(N2Cc3c(CN4CCC(CCN5CCC6(CC5)Cc5cc(NC(=O)c7cnn8cccnc78)c(N7CCC(CO)CC7)cc5O6)CC4)cccc3C2=O)C(=O)N1 (stereo not drawn) [Compound 64],1.3,–,89.3,–,–
O=C1CCC(N2C(=O)c3cc(F)c(N4CCC(CCN5CCC6(CC5)Cc5cc(NC(=O)c7cnn8cccnc78)c(N7CCC(CO)CC7)cc5O6)CC4)cc3C2=O)C(=O)N1 (stereo not drawn) [Compound 72],7.7,–,92.6,–,–
COC1(CN2CCC3(CC2)Cc2cc(NC(=O)c4cnn5cccnc45)c(N4CCC(CO)CC4)cc2O3)CCN(c2cccc3c2n(C)c(=O)n3C2CCC(=O)NC2=O)CC1 (stereo not drawn) [Example 79],1.55,–,89.5,–,–
Cn1c(=O)n(C2CCC(=O)NC2=O)c2cccc(C3CC(CN4CCC5(CC4)Cc4cc(NC(=O)c6cnn7cccnc67)c(N6CCC(CO)CC6)cc4O5)C3)c21 (stereo not drawn) [Example 80],0.64,–,83.4,–,–
Cn1c(=O)n(C2CCC(=O)NC2=O)c2cccc(N3CCC(O)(CC(=O)N4CCC5(CC4)Cc4cc(NC(=O)c6cnn7cccnc67)c(N6CCC(CO)CC6)cc4O5)CC3)c21 (stereo not drawn) [Example 81],1.02,–,90.2,–,–
O=C1CCC(N2C(=O)c3ccc(N4CCC(CN5CCC6(CC5)Cc5cc(NC(=O)c7cnn8cccnc78)c(N7CCC(CO)CC7)cc5O6)CC4)cc3C2=O)C(=O)N1 (stereo not drawn) [Example 82],3.44,–,85.6,–,–
Cc1cc(-c2nc(C(=O)Nc3cc4c(cc3N3CCC(O)CC3)OC3(CCN(C[C@H]5CC[C@H](OCC#Cc6cccc7c6n(C)c(=O)n7C6CCC(=O)NC6=O)CC5)CC3)C4)co2)ccn1 (stereo partly drawn) [Example 88],5.4,89,–,–,–
Cn1c(=O)n(C2CCC(=O)NC2=O)c2cccc(N3CCC(CCN4CCC5(CC4)Cc4cc(NC(=O)c6cnn7cccnc67)c(N6CCC(CO)CC6)cc4O5)CC3)c21 (stereo not drawn) [Example 96],1.65,–,92,–,–
O=C1CCC(N2C(=O)c3cc(F)c(N4CCC(CN5CCC6(CC5)Cc5cc(NC(=O)c7cnn8cccnc78)c(N7CCC(CO)CC7)cc5O6)CC4)cc3C2=O)C(=O)N1 (stereo not drawn) [Example 97],7.85,–,87.9,–,–

# Further lines, with some results ahead:
"DC50 (THP-1 cells, read-out: DC50) [nM]",Dmax (THP-1 cells) [%],SMILES,"Dmax (THP-1, THP-1 cells) [%]",Dmax% (THP-1 cells) [%],DC50 (THP-1 cells) [nM]
4.14,93.5,Cn1c(=O)n(C2CCC(=O)NC2=O)c2cccc(CN3CCC(CCN4CCC5(CC4)Cc4cc(NC(=O)c6coc7cccnc67)c(N6CCC(CO)CC6)cc4O5)CC3)c21 (stereo not drawn) [Compound 3],–,–,–
9.65,85.1,Cn1c(=O)n(C2CCC(=O)NC2=O)c2cccc(CN3CCC(CCN4CCC5(CC4)Cc4cc(NC(=O)c6cnn7cccnc67)c(N6CCN(CC(F)F)CC6)cc4O5)CC3)c21 (stereo not drawn) [Compound 6],–,–,–
3.4,89.2,Cn1c(=O)n(C2CCC(=O)NC2=O)c2cccc(CN3CCC(CCN4CCC5(CC4)Oc4cc(NC(=O)c6coc7cccnc67)c(N6CCC(CO)CC6)cc4O5)CC3)c21 (stereo not drawn) [Compound 14],–,–,–
3.58,91.6,Cn1c(=O)n(C2CCC(=O)NC2=O)c2cccc(C#CCOC3CCN(CCN4CCC5(CC4)Cc4cc(NC(=O)c6coc7cccnc67)c(N6CCC(CO)CC6)cc4O5)CC3)c21 (stereo not drawn) [Compound 21],–,–,–
3.08,88.3,Cn1c(=O)n(C2CCC(=O)NC2=O)c2cccc(C#CCOC3CCN(CCN4CCC5(Cc6cc(NC(=O)c7coc8cccnc78)c(N7CCC(CO)CC7)cc6O5)C4)CC3)c21 (stereo not drawn) [Compound 23],–,–,–
3.38,86.5,Cn1c(=O)n(C2CCC(=O)NC2=O)c2cccc(C#CCOC3CCN(CCN4CCC5(CC4)Oc4cc(NC(=O)c6cnn7cccnc67)c(N6CCC(CO)CC6)cc4O5)CC3)c21 (stereo not drawn) [Compound 28],–,–,–
7.12,92.8,Cn1c(=O)n(C2CCC(=O)NC2=O)c2cccc(C#CCOC3CCN(CCN4CCC5(CC4)Oc4cc(NC(=O)c6coc7cccnc67)c(N6CCC(CO)CC6)cc4O5)CC3)c21 (stereo not drawn) [Compound 29],–,–,–
6.38,84.9,COCC1CCN(c2cc3c(cc2NC(=O)c2cnn4cccnc24)CC2(CCN(C[C@H]4CC[C@H](OCC#Cc5cccc6c5n(C)c(=O)n6C5CCC(=O)NC5=O)CC4)CC2)O3)CC1 (stereo partly drawn) [Compound 44],–,–,–
2,83.9,Cn1c(=O)n(C2CCC(=O)NC2=O)c2cccc(C#CCO[C@H]3CC[C@H](CN4CCC5(Cc6cc(NC(=O)c7cnn8cccnc78)c(N7CCC(CO)CC7)cc6O5)C4)CC3)c21 (stereo partly drawn) [Compound 51],–,–,–
2.77,77.5,Cn1c(=O)n(C2CCC(=O)NC2=O)c2cccc(C#CCO[C@H]3CC[C@H](CN4CCC5(CC4)Cc4cc(NC(=O)c6cnn7cccnc67)c(N6CCC(CO)CC6)cc4C5)CC3)c21 (stereo partly drawn) [Compound 53],–,–,–
3.5,91.1,Cn1c(=O)n(C2CCC(=O)NC2=O)c2cccc(C#CCO[C@H]3CC[C@H](CN4CCC5(Cc6cc(NC(=O)c7coc8cccnc78)c(N7CCC(CO)CC7)cc6O5)C4)CC3)c21 (stereo partly drawn) [Compound 54],–,–,–
7.79,90.4,Cn1c(=O)n(C2CCC(=O)NC2=O)c2cccc(C#CCO[C@H]3CC[C@@H](CN4CCC5(CC4)Cc4cc(NC(=O)c6coc7cccnc67)c(N6CCC(CO)CC6)cc4O5)CC3)c21 (stereo partly drawn) [Compound 56],–,–,–
3.69,85.6,Cn1c(=O)n(C2CCC(=O)NC2=O)c2cccc(C#CCO[C@H]3CC[C@@H](CN4CCC5(Cc6cc(NC(=O)c7cnn8cccnc78)c(N7CCC(CO)CC7)cc6O5)C4)CC3)c21 (stereo partly drawn) [Compound 58],–,–,–
2.98,86.2,Cn1c(=O)n(C2CCC(=O)NC2=O)c2cccc(C#CCO[C@H]3CC[C@H](CN4CCC5(CC4)Cc4cc(NC(=O)c6cnn7cc(Cl)cnc67)c(N6CCC(O)CC6)cc4O5)CC3)c21 (stereo partly drawn) [Example 86],–,–,–
4.06,90,Cn1c(=O)n(C2CCC(=O)NC2=O)c2cccc(C#CCO[C@H]3CC[C@H](CN4CCC5(CC4)Cc4cc(NC(=O)c6cnn7cc(C#N)cnc67)c(N6CCC(CO)CC6)cc4O5)CC3)c21 (stereo partly drawn) [Example 87],–,–,–
6.02,84.6,Cc1cc(-c2nc(C(=O)Nc3cc4c(cc3N3CCC(CO)CC3)OC3(CCN(C[C@H]5CC[C@H](OCC#Cc6cccc7c6n(C)c(=O)n7C6CCC(=O)NC6=O)CC5)CC3)C4)co2)ccn1 (stereo partly drawn) [Example 89],–,–,–
2.24,87.1,Cn1c(=O)n(C2CCC(=O)NC2=O)c2cccc(C#CCO[C@H]3CC[C@H](CN4CCC5(CC4)Cc4cc(NC(=O)c6cnn7cc(CO)cnc67)c(N6CCC(CO)CC6)cc4O5)CC3)c21 (stereo partly drawn) [Example 90],–,–,–
